According to patent publication US11998640B2, “Room temperature stable oral calcitonin formulation” (PARK THERAPEUTICS, INC., priority 2016, dated 2024):

Key:
[1] = Water content of rsCT and excipient powders by Karl Fischer Coulometric Titration Method 1c; format: physicochemical; settings: for Dried Water content: powder after drying in a lyophilizer; for Untreated Water Content: powder in its untreated state
Procedure: The stability of rsCT in the binary presence of the tablet core and subcoat excipients, as well as the effect of intrinsic and extrinsic moisture on the stability of those mixtures, was thoroughly examined. Each of the components including rsCT was evaluated in its untreated state and after drying in a lyophilizer (dried). The water content of each powder was determined by Karl Fischer Coulometric Titration Method 1c prior to preparation of the binary mixtures and is presented in Table 1, below.

[2] = Binary mixture study: stability of rsCT with individual excipients stored at 40° C. (recovery and purity); format: physicochemical; settings: for rsCT stability in binary mixture: 40° C.
Procedure: Binary mixtures were prepared by combining about 18 mg of rsCT with about 300 mg of each of the excipients, individually. Each binary mixture was evaluated in the presence or absence of 10% (w/w) water. Control samples included rsCT only. The mixtures were stored at 40° C., were pulled in duplicate after 7 days and 32 days, and were evaluated for recovery (assay activity relative to that of untreated and dried rsCT) and purity.

[3] = more potent than human calcitonin; cited from earlier work

| Average Purity (Area %) ([2]; 10% (v/w) Water Added, T = 7 days at 40° C.) [% Area %] | Average Purity (Area %) ([2]; 10% (v/w) Water Added, T = 32 days at 40° C.) [% Area %] | Average Purity (Area %) ([2]; Untreated Powders, T = 7 days at 40° C.) [% Area %] | Average Purity (Area %) ([2]; Untreated Powders, T = 32 days at 40° C.) [% Area %] | rsCT stability in binary mixture ([2]; in the presence of water and Kollicoat IR) | Compound | Dried Water content [1] [%] | Untreated Water Content [1] [%] | rsCT stability in binary mixture ([2]; in the presence of water and Citric Acid DC F20) | rsCT stability in binary mixture ([2]; in the presence of water and Prosolv HD90) | Potency relative to human calcitonin [3] |
| --- | --- | --- | --- | --- | --- | --- | --- | --- | --- | --- |
| 98.2 | 95.1 | 98.9 | 96.0 | loss of rsCT activity and loss in purity | CC(C)C[C@H](NC(=O)[C@H](CCCCN)NC(=O)CNC(=O)[C@H](CC(C)C)NC(=O)[C@@H](NC(=O)[C@@H]1CSSC[C@H](N)C(=O)N[C@@H](CO)C(=O)N[C@@H](CC(N)=O)C(=O)N[C@@H](CC(C)C)C(=O)N[C@@H](CO)C(=O)N[C@@H]([C@@H](C)O)C(=O)N1)C(C)C)C(=O)N[C@@H](CO)C(=O)N[C@@H](CCC(N)=O)C(=O)N[C@@H](CCC(=O)O)C(=O)N[C@@H](CC(C)C)C(=O)N[C@@H](Cc1c[nH]cn1)C(=O)N[C@@H](CCCCN)C(=O)N[C@@H](CC(C)C)C(=O)N[C@@H](CCC(N)=O)C(=O)N[C@H](C(=O)N[C@@H](Cc1ccc(O)cc1)C(=O)N1CCC[C@H]1C(=O)N[C@@H](CCCNC(=N)N)C(=O)N[C@H](C(=O)N[C@@H](CC(N)=O)C(=O)N[C@H](C(=O)NCC(=O)N[C@@H](CO)C(=O)NCC(=O)N[C@H](C(=O)N1CCC[C@H]1C(N)=O)[C@@H](C)O)[C@@H](C)O)[C@@H](C)O)[C@@H](C)O [rsCT, salmon calcitonin] | 0.90 | 8.91 | rapidly degraded with concomitant loss of recovery and purity | rapid loss of rsCT activity and non-concomitant loss in purity | 30-50 times |
|  |  |  |  |  | Magnesium Stearate | 3.51 | 5.00 |  |  |  |
